Experimental data reported in patent publication US12324841B2, “Methods of treating cancer with a combination of an anti-PD-1 antibody and an anti-tissue factor antibody-drug conjugate” (GENMAB A/S, priority 2018, dated 2025).
“Also recorded” adds a separate entry of the source.

Columns and labels:
[1] = test system: Tissue Factor positive cell lines; assay: Cell death and release of ATP and HMGB1 from Tissue Factor positive cell lines; type: cell-based
Excerpt: Auristatin ADC payloads disrupt the microtubule networks resulting in altered ER localization and function, which ultimately results in ER stress.

T cells = assay: T cell activation in CSFE labeled PBMCs fed killed MDA-MB-231 cells, with or without pembrolizumab; type: cell-based, human; details: 48 hours, without pembrolizumab
Description: FIG. 8A-8C is a series of graphs in which Tissue Factor positive MDA-MB-231 cells killed with various agents were fed to CSFE labeled human peripheral blood mononuclear cells (PBMCs) in the presence or absence of the PD1 targeting antibody pembrolizumab for 48 hours and T cells activation assessed by A) decreased CSFE fluorescent indicative of T cell proliferation and B) and C) cytokine production.
Induction of the innate immune response following exposure to cancer cells undergoing ICD sets up secondary T cell activation, which can be enhanced by concomitant pembrolizumab treatment.

[2] = test system: MDA-MB-231 (breast cell carcinoma); assay: Western blot analysis of ER stress induction in MDA-MB-231 cells; type: cell-based; details: MDA-MB-231, 18 hours (legend: 16 hours)
Description: Induction of cell death and release of ICD danger signals occurs concomitant with initiation of an ER stress response. Two Tissue Factor positive cell lines, HPAFII (pancreatic carcinoma) and MDA-MB-231 (breast cell carcinoma) were exposed to tisotumab vedotin ADC, an Isotype-MMAE ADC (H00-MMAE, IgG1 MMAE), or free MMAE for 18 hours and induction of ER stress monitored by western blot analysis. Phosphorylation of inositol-requiring transmembrane kinase/endonuclease 1 (IRE1) was detected after treatment with tisotumab vedotin ADC or MMAE free drug (FIG. 6). […] The ability for auristatins to prime the immune system to recognize tumor antigens opens the door for a myriad of combinatorial therapeutic options.

[3] = test system: relapsed, recurrent, and/or metastatic cervical cancer; assay: Phase I/II trial of tisotumab vedotin (NCT02001623); type: in vivo, human
Excerpt: Further investigation of tisotumab vedotin as a monotherapy and in combination with immunotherapy (e.g., an anti-PD-1 antibody) in a larger cohort of patients with cervical cancer is needed.
Three adverse events of special interest were identified during treatment with tisotumab vedotin alone in the Phase IIa trial discussed above: 1) ocular adverse events; 2) adverse events of peripheral neuropathy; and 3) adverse events of bleeding. […] In the present trial, in order to prevent ocular AEs, all subjects in both treatment groups (i.e., tisotumab vedotin alone or in combination with pembrolizumab) must adhere to the following ocular pre-medication guidelines: 1) use of preservative-free lubricating eye drops during the whole treatment phase of the trial (i.e., from first dose of tisotumab vedotin until the safety follow-up visit). Lubricating eye drops should be administered according to the product prescribing information; 2) it is recommended not to wear contact lenses while treated with tisotumab vedotin from the first dose until a safety follow-up visit; 3) use of refrigerator-based eye cooling pads during infusion, e.g. THERA PEARL Eye Mask or similar, to be applied immediately before infusion in accordance with the instructions provided with the eye cooling pads; 4) administration of local ocular vasoconstrictor before infusion (brimonidine tartrate 0.2% eye drops or similar, 3 drops in each eye immediately prior to start of infusion; otherwise to be used in accordance with the product prescribing information). […] Steroid eye drops should be administered as 1 drop in each eye, 3 times daily, for 3 days, or used in accordance with the product prescribing information.
For AEs of peripheral neuropathy (including neuropathy peripheral; peripheral sensory neuropathy; peripheral motor neuropathy; polyneuropathy): Peripheral neuropathy is a well-known adverse reaction to treatment with platinum and taxane based chemotherapies as well as MMAE-based ADCs and is reported in approximately 35% of subjects who received treatment with tisotumab vedotin. […] A mitigation plan, including dose reduction (See Table 4) and dose delays, is in place to control the rates and severity of peripheral neuropathy observed in subjects treated with tisotumab vedotin. For Grade 2 and 3, or initial or worsening of pre-existing condition, hold tisotumab vedotin until event has improved to ≤grade 1 then reduce next dose according to dose reduction shown in Table 4. No action is required to be taken with pembrolizumab. For ≥Grade 4, permanently discontinue tisotumab vedotin. Contact sponsor to discuss continuation of pembrolizumab alone.
For AEs of bleeding: Bleeding events are considered of special interest due to the mode of action of tisotumab vedotin. […] Dose modification and toxicity management guidelines are in place (Table 7).

[4] = subjects who received tisotumab vedotin

Substance: tisotumab vedotin: antibody-drug conjugate comprising an antibody that binds to tissue factor (TF), a protease-cleavable linker, and the microtubule disrupting agent MMAE
- cell death [1]: undergo cell death
- ATP release/secretion ([1]; FIG. 5A): drove robust A) ATP secretion; also recorded: release the ICD related molecules ATP
- activity on multiple Tissue Factor positive cell lines ([1]; FIG. 5B): active on multiple Tissue Factor positive cell lines
- HMGB1 release/secretion ([1]; FIG. 5C): drove robust A) ATP secretion and C) HMGB1 release; also recorded: release the ICD related molecules ATP (FIG. 5A) and HMGβ1
- T cell proliferation (CSFE dilution) (T cells): drove T cell proliferation
- production of IFNγ (T cells): production of T cell specific cytokines such as IL12P70 and IFNγ
- production of IL12p70 (T cells): production of T cell specific cytokines such as IL12P70 and IFNγ
- ATF4 cleavage (PERK pathway) [2]: upregulation of ATF4 cleavage
- phosphorylation of IRE1 [2]: detected
- phosphorylation of JNK [2]: increased phosphorylation
- efficacy ([3]; 2.0 mg/kg tisotumab vedotin): robust efficacy
- safety profile ([3]; 2.0 mg/kg tisotumab vedotin): manageable safety profile
- bleeding events: epistaxis, frequency ([3]; in vivo): most common reported AE
- bleeding events: epistaxis, grade ([3]; in vivo): nearly all of the cases are grade 1
- clinically relevant perturbations in aPTT or prothrombin time (PT) ([3]; in vivo): have not been observed
- peripheral neuropathy as cause of permanent discontinuation [3, 4]: leading cause of permanently discontinuation
- peripheral neuropathy, grade of reported cases [3, 4]: majority of the reported cases are grade 1-2
- peripheral neuropathy, share of subjects [3, 4]: approximately 35%
- ocular AEs: grade 1-2 conjunctivitis ([3]; tisotumab vedotin alone): frequently reported
